Patent publication US10975049B2, “Nicotinyl alcohol ether derivative, preparation method therefor, and pharmaceutical composition and uses thereof” (Institute of Materia Medica, Chinese Academy of Medical …, priority 2016, dated 2021)

Experiments:
[1] = biological target: T1, PD-L1 protein (Homo sapiens (Human), UniProt Q9NZQ7); experiment: Relieving the inhibition of IFNγ by ligand PD-L1 in human PBMC; type: cell-based; settings: 72 h
Protocol: The expression level of IFNγ can reflect the proliferative activity of T lymphocytes. Using the extracted human PBMC (peripheral blood mononuclear cell), on the basis that T lymphocyte could be activated by the anti-CD3/anti-CD28 antibody, the ligand PD-L1 was added to the inhibit T lymphocyte, the example compounds' capacity of relieving the inhibition by the PD-L1 was investigated.
The specific procedure is as follows. DAKEWE human lymphocyte separation solution (DKW-KLSH-0100) was used to extract PBMC from human whole blood, and PBMC was inoculated into 96 well plate, with 3×10^5 cells per well. […] After 72 h, the expression level of IFNγ in the supernatant was detected by Cisbio IFNγ test kit.

[2] = test system: high metastatic melanoma B16F10; experiment: Lung metastasis model of high metastatic melanoma B16F10; type: in vivo, C57BL/6 mice; settings: result in words
Protocol: The method in B16F10 lung metastasis model was as follows. The cultured B16F10 tumor cells were digested and centrifuged and washed for two times with sterile physiological saline and then counted. And the cell concentration was adjusted to 2.5×10^6/ml by physiological saline. 0.2 ml of cells were injected into the C57BL/6 mice through the tail vein, and the tumor cells will gather in the lung of the mice. After inoculation, the animals were randomly divided into two groups in next day. Each group had 6-7 mice. After weighing, the animals were dosed once each day. After 3 weeks, the mice were weighed and killed, the lung tissue was collected and weighed, and the number of lung tumors was counted after being fixed by the Bouin's Fluid. Finally, the tumor growth inhibition rate was calculated, and the tumor growth inhibition rate was used to evaluate the level of anti-tumor effect.
In the study of the mechanism of the above models, the method of flow cytometry was adopted in measuring the total cell proportion of T cells of various types. The specific steps were as follows. The samples were treated at first. For blood tissue, the orbital blood was taken. The red cell lysate was used to remove the red blood cells, and then the PBS buffer was used for wash. After being washed, the cells were collected. For the tumor and spleen, the tissues were grinded with a homogenizer, and then diluted with PBS buffer, then filtered by 300 meshes of screen. After the number of cells was counted for each sample, 1×10^6 cells were added into EP tube and stained for flow antibody. After incubation for 1 h on ice, each sample was washed 2 times with PBS buffer. The cell population was analyzed by VERSE flow instrument of BD Company. The total number of cells in tumor tissue was 1×10^5 and the total number of cells in blood and spleen tissues was 1×10^4. The ratio of T cells to total number of cells was analyzed after flow cytometry.

[3] = test system: mouse colon cancer MC38; experiment: Subcutaneous xenograft model of mouse colon cancer MC38; type: in vivo, C57BL/6 or Bablc mice
Protocol: The method in subcutaneous xenograft tumor was as follows. The cultured specific tumor cells were digested and collected by centrifugation, and washed with sterile physiological saline for two times and then counted. The cell concentration was adjusted to 5×10^6/ml by physiological saline, and 0.2 ml of cell suspension was inoculated to the right armpit of C57BL/6 or Bablc mice. After inoculation, the animals were randomly divided into two groups in next day. Each group had 6-7 mice. After weighing, the animals were dosed once each day to monitor tumor size. When the tumor size reached to a certain size, the mice was weighed and blood was collected from mice orbit and then the mice were killed by removing the neck. The tumor tissue, thymus tissue and spleen tissue were collected and weighed respectively. Finally, the tumor growth inhibition rate was calculated, and the tumor growth inhibition rate was used to evaluate the level of anti-tumor effect.

[4] = biological target: T1, PD-L1 protein; experiment: Interaction with PD-L1 protein tested by Biacore (SPR); type: binding
Excerpt: Surface plasmon is a kind of electromagnetic wave on the surface of metal, produced by the interaction of photon and electron in free vibration. Surface plasmon resonance (SPR) is an optical phenomenon that occurs on the surface of two kinds of media, which can be induced by photon or electron. The phenomenon of total reflection of light from light dense medium into light scattering medium will form evanescent wave into light scattering medium. When the total reflected evanescent wave meets the plasma wave on the metal surface, the resonance may occur, and the energy of reflected light decreases and the resonance peak appears on the reflected light energy spectrum. This resonance is called the surface plasmon resonance. The incident angle of the surface plasmon resonance is called the SPR angle. The SPR biosensor provides a sensitive, real-time, non-label detection technique for monitoring the interaction of molecules. The sensor detects the change of the SPR angle, and SPR is also related to the refractive index of the metal surface. When an analyte is bond on the surface of the chip, it leads to the change of the refractive index of the chip surface, which leads to the change of the SPR angle. […] In the interaction analysis, the change of SPR angle is recorded on the sensor map in real time. […]

T1 sequence (Q9NZQ7 19-290): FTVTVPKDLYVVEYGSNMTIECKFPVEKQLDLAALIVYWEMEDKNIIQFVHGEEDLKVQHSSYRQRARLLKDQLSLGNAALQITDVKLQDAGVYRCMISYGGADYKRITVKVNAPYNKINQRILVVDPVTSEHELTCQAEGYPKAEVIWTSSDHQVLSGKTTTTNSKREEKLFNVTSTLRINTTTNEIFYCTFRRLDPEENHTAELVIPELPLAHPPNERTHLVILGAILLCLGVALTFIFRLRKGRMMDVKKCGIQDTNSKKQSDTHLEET

O=C(O)[C@H](CO)NCc1cc(Cl)c(OCc2cccc(-c3ccccc3)c2Br)cc1OCc1cccnc1 [Example 4, (S)—N-(4-(2-bromo-3-phenylbenzyloxy)-5-chloro-2-(pyridin-3-yl-methyleneoxy)benzyl) serine]
IC50 [1]: 0.18 nM
relief of the inhibition of PD-L1 to expression level of IFNγ ([1]; at 10 nM): partially relieved
percentage of lymphocyte in mouse blood [2]: increase
TGI % (tumor growth inhibition rate) ([3]; 2.5 mg/kg): 102.3%
Tumor weight(g) Mean ± SD ([3]; 2.5 mg/kg): 3.25 ± 0.61 g
Body weight (g) Mean ± SD Begin ([3]; 2.5 mg/kg, begin): 18.0 ± 0.4 g
Body weight (g) Mean ± SD End ([3]; 2.5 mg/kg): 21.9 ± 0.7 g
TGI % (tumor growth inhibition rate) ([3]; 5 mg/kg): 12.7%
Tumor weight(g) Mean ± SD ([3]; 5 mg/kg): 2.78 ± 0.44 g
Body weight (g) Mean ± SD End ([3]; 5 mg/kg): 22.8 ± 0.6 g
TGI % (tumor growth inhibition rate) ([3]; 10 mg/kg): 32.7%
Tumor weight(g) Mean ± SD ([3]; 10 mg/kg): 2.14 ± 0.78 g
Body weight (g) Mean ± SD End ([3]; 10 mg/kg): 21.5 ± 0.8 g
TGI % (tumor growth inhibition rate) ([3]; 20 mg/kg): 41.2%
Tumor weight(g) Mean ± SD ([3]; 20 mg/kg): 1.87 ± 0.90 g
Body weight (g) Mean ± SD End ([3]; 20 mg/kg): 20.9 ± 1.1 g
kd ([4]; PBS-P+, pH7.4, 0.01% DMSO, NTA chip): 2.815e-05 s⁻¹
Kd ([4]; unit inferred, read-out: affinity kD value): 0.0203 nM
